Key:
Assay type in all cases: in vivo
Velvetleaf [1] = experiment: pre-emergence herbicide test; conditions: Abutilon theophrasti, pre-emergence, 0.25 lb/A; read-out: % plant inhibition
Summary of the method: (§1)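 Sown seeds covered with dosed topsoil; carrier acetone or water; greenhouse, watered from below, optional 1/4 in overhead irrigation post-treatment; % inhibition at ~14 d.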

Bedstraw Catchweed [2] = experiment: pre-emergence herbicide test; conditions: Galium aparine, pre-emergence, 0.25 lb/A; read-out: % plant inhibition
Summary of the method: as §1

Giant Foxtail [3] = experiment: pre-emergence herbicide test; conditions: Setaria faberi, pre-emergence, 0.25 lb/A; read-out: % plant inhibition
Summary of the method: as §1

Blackgrass [4] = experiment: pre-emergence herbicide test; conditions: Alopecurus myosuroides, pre-emergence, 0.25 lb/A; read-out: % plant inhibition
Summary of the method: as §1

Green Foxtail [5] = experiment: pre-emergence herbicide test; conditions: Setaria viridis, pre-emergence; 0.25 lb/A; read-out: % plant inhibition
Summary of the method: as §1

Common Chickweed [6] = experiment: pre-emergence herbicide test; conditions: pre-emergence, 0.25 lb/A; read-out: % plant inhibition
Summary of the method: as §1

Downy Brome [7] = experiment: pre-emergence herbicide test; conditions: Bromus tectorum, pre-emergence, 0.25 lb/A; read-out: % plant inhibition
Summary of the method: as §1

Seedling Johnsongrass [8] = experiment: pre-emergence herbicide test; conditions: Sorghum halepense, pre-emergence, 0.25 lb/A; read-out: % plant inhibition
Summary of the method: as §1

Morning Glory [9] = experiment: pre-emergence herbicide test; conditions: Ipomoea, pre-emergence, 0.25 lb/A; read-out: % plant inhibition
Summary of the method: as §1

Soybean [10] = experiment: pre-emergence herbicide test; conditions: Glycine max, pre-emergence, 0.25 lb/A; read-out: % plant inhibition
Summary of the method: as §1

Cocklebur [11] = experiment: pre-emergence herbicide test; conditions: Xanthium strumarium, pre-emergence, 0.25 lb/A; read-out: % plant inhibition
Summary of the method: as §1

Birdseye Speedwell [12] = experiment: pre-emergence herbicide test; conditions: pre-emergence, 0.25 lb/A; read-out: % plant inhibition
Summary of the method: as §1

Barnyardgrass [13] = experiment: pre-emergence herbicide test; conditions: Echinochloa crus-galli, pre-emergence, 0.25 lb/A; read-out: % plant inhibition
Summary of the method: as §1

Corn [14] = experiment: pre-emergence herbicide test; conditions: Zea mays, pre-emergence, 0.25 lb/A; read-out: % plant inhibition
Summary of the method: as §1

Wheat [15] = experiment: pre-emergence herbicide test; conditions: Triticum aestivum, pre-emergence, 0.25 lb/A; read-out: % plant inhibition
Summary of the method: as §1

Rape [16] = experiment: pre-emergence herbicide test; conditions: pre-emergence, 0.25 lb/A; read-out: % plant inhibition
Summary of the method: as §1

Wild Oats [17] = experiment: pre-emergence herbicide test; conditions: Avena fatua, pre-emergence, 0.25 lb/A; read-out: % plant inhibition
Summary of the method: as §1

Velvetleaf [18] = experiment: post-emergence herbicide test; conditions: Abutilon theophrasti, post-emergence, 0.25 lb/A; read-out: % plant inhibition
Summary of the method: (§2)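 Seeds sown on compacted topsoil, covered, leveled; greenhouse, overhead or subirrigation. Plants 2–3 wk old → atomizer spray, 170.3 kPa, 1870 L/Ha, ~0.4% v/v emulsifier. Readout: % inhibition.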

Bedstraw Catchweed [19] = experiment: post-emergence herbicide test; conditions: Galium aparine, post-emergence, 0.25 lb/A; read-out: % plant inhibition
Summary of the method: as §2

Giant Foxtail [20] = experiment: post-emergence herbicide test; conditions: Setaria faberi, post-emergence, 0.25 lb/A; read-out: % plant inhibition
Summary of the method: as §2

Blackgrass [21] = experiment: post-emergence herbicide test; conditions: Alopecurus myosuroides, post-emergence, 0.25 lb/A; read-out: % plant inhibition
Summary of the method: as §2

Green Foxtail [22] = experiment: post-emergence herbicide test; conditions: Setaria viridis, post-emergence, 0.25 lb/A; read-out: % plant inhibition
Summary of the method: as §2

Common Chickweed [23] = experiment: post-emergence herbicide test; conditions: post-emergence, 0.25 lb/A; read-out: % plant inhibition
Summary of the method: as §2

Downy Brome [24] = experiment: post-emergence herbicide test; conditions: Bromus tectorum, post-emergence, 0.25 lb/A; read-out: % plant inhibition
Summary of the method: as §2

Seedling Johnsongrass [25] = experiment: post-emergence herbicide test; conditions: Sorghum halepense, post-emergence, 0.25 lb/A; read-out: % plant inhibition
Summary of the method: as §2

Morning Glory [26] = experiment: post-emergence herbicide test; conditions: Ipomoea, post-emergence, 0.25 lb/A; read-out: % plant inhibition
Summary of the method: as §2

Soybean [27] = experiment: post-emergence herbicide test; conditions: Glycine max, post-emergence, 0.25 lb/A; read-out: % plant inhibition
Summary of the method: as §2

Cocklebur [28] = experiment: post-emergence herbicide test; conditions: Xanthium strumarium, post-emergence, 0.25 lb/A; read-out: % plant inhibition
Summary of the method: as §2

Birdseye Speedwell [29] = experiment: post-emergence herbicide test; conditions: post-emergence, 0.25 lb/A; read-out: % plant inhibition
Summary of the method: as §2

Barnyardgrass [30] = experiment: post-emergence herbicide test; conditions: Echinochloa crus-galli, post-emergence, 0.25 lb/A; read-out: % plant inhibition
Summary of the method: as §2

Corn [31] = experiment: post-emergence herbicide test; conditions: Zea mays, post-emergence, 0.25 lb/A; read-out: % plant inhibition
Summary of the method: as §2

Wheat [32] = experiment: post-emergence herbicide test; conditions: Triticum aestivum, post-emergence, 0.25 lb/A; read-out: % plant inhibition
Summary of the method: as §2

Rape [33] = experiment: post-emergence herbicide test; conditions: post-emergence, 0.25 lb/A; read-out: % plant inhibition
Summary of the method: as §2

Wild Oats [34] = experiment: post-emergence herbicide test; conditions: Avena fatua, post-emergence, 0.25 lb/A; read-out: % plant inhibition
Summary of the method: as §2

Structure (SMILES) | inhibition at 280.212 g/ha (Velvetleaf [1]) | inhibition at 280.212 g/ha (Bedstraw Catchweed [2]) | inhibition at 280.212 g/ha (Giant Foxtail [3]) | inhibition at 280.212 g/ha (Blackgrass [4]) | inhibition at 280.212 g/ha (Green Foxtail [5]) | inhibition at 280.212 g/ha (Common Chickweed [6]) | inhibition at 280.212 g/ha (Downy Brome [7]) | inhibition at 280.212 g/ha (Seedling Johnsongrass [8]) | inhibition at 280.212 g/ha (Morning Glory [9]) | inhibition at 280.212 g/ha (Soybean [10]) | inhibition at 280.212 g/ha (Cocklebur [11]) | inhibition at 280.212 g/ha (Birdseye Speedwell [12]) | inhibition at 280.212 g/ha (Barnyardgrass [13]) | inhibition at 280.212 g/ha (Corn [14]) | inhibition at 280.212 g/ha (Wheat [15]) | inhibition at 280.212 g/ha (Rape [16]) | inhibition at 280.212 g/ha (Wild Oats [17]) | inhibition at 280.212 g/ha (Velvetleaf [18]) | inhibition at 280.212 g/ha (Bedstraw Catchweed [19]) | inhibition at 280.212 g/ha (Giant Foxtail [20]) | further results
Cc1cc(-c2nn(C)c(C(F)(F)F)c2C)c(O)cc1Cl [Compound 16] | 0% | 45% | 0% | 15% | 10% | 95% | 20% | 0% | 0% | 0% | 0% | 100% | 0% | 0% | 0% | 55% | 20% | 0% | 25% | 0% | inhibition at 280.212 g/ha (Blackgrass [21]): 5%; inhibition at 280.212 g/ha (Green Foxtail [22]): 0%; inhibition at 280.212 g/ha (Common Chickweed [23]): 50%; inhibition at 280.212 g/ha (Downy Brome [24]): 0%; inhibition at 280.212 g/ha (Seedling Johnsongrass [25]): 0%; inhibition at 280.212 g/ha (Morning Glory [26]): 5%; inhibition at 280.212 g/ha (Soybean [27]): 0%; inhibition at 280.212 g/ha (Cocklebur [28]): 0%; inhibition at 280.212 g/ha (Birdseye Speedwell [29]): 30%; inhibition at 280.212 g/ha (Barnyardgrass [30]): 0%; inhibition at 280.212 g/ha (Corn [31]): 0%; inhibition at 280.212 g/ha (Wheat [32]): 0%; inhibition at 280.212 g/ha (Rape [33]): 0%; inhibition at 280.212 g/ha (Wild Oats [34]): 0%
CCOC(=O)COC(=O)c1cc(-c2nn(C)c(C(F)(F)F)c2C)c(F)cc1Cl [Compound 17] | 50% | 100% | 40% | 20% | 35% | 100% | 30% | 5% | 50% | 5% | 10% | 100% | 0% | 0% | 0% | 90% | 15% | 99% | 95% | 45% | inhibition at 280.212 g/ha (Blackgrass [21]): 15%; inhibition at 280.212 g/ha (Green Foxtail [22]): 20%; inhibition at 280.212 g/ha (Common Chickweed [23]): 90%; inhibition at 280.212 g/ha (Downy Brome [24]): 30%; inhibition at 280.212 g/ha (Seedling Johnsongrass [25]): 65%; inhibition at 280.212 g/ha (Morning Glory [26]): 90%; inhibition at 280.212 g/ha (Soybean [27]): 30%; inhibition at 280.212 g/ha (Cocklebur [28]): 95%; inhibition at 280.212 g/ha (Birdseye Speedwell [29]): 98%; inhibition at 280.212 g/ha (Barnyardgrass [30]): 70%; inhibition at 280.212 g/ha (Corn [31]): 10%; inhibition at 280.212 g/ha (Wheat [32]): 15%; inhibition at 280.212 g/ha (Rape [33]): 20%; inhibition at 280.212 g/ha (Wild Oats [34]): 20%
Cc1c(-c2cc(C(N)=O)c(Cl)cc2F)nn(C)c1C(F)(F)F [Compound 21] | 25% | 90% | 45% | 95% | 100% | 98% | 35% | 85% | 20% | 15% | 20% | 100% | 90% | 16% | 5% | 90% | 60% | 90% | 65% | 35% | inhibition at 280.212 g/ha (Blackgrass [21]): 10%; inhibition at 280.212 g/ha (Green Foxtail [22]): 25%; inhibition at 280.212 g/ha (Common Chickweed [23]): 30%; inhibition at 280.212 g/ha (Downy Brome [24]): 25%; inhibition at 280.212 g/ha (Seedling Johnsongrass [25]): 35%; inhibition at 280.212 g/ha (Morning Glory [26]): 90%; inhibition at 280.212 g/ha (Soybean [27]): 35%; inhibition at 280.212 g/ha (Cocklebur [28]): 65%; inhibition at 280.212 g/ha (Birdseye Speedwell [29]): 50%; inhibition at 280.212 g/ha (Barnyardgrass [30]): 25%; inhibition at 280.212 g/ha (Corn [31]): 10%; inhibition at 280.212 g/ha (Wheat [32]): 5%; inhibition at 280.212 g/ha (Rape [33]): 20%; inhibition at 280.212 g/ha (Wild Oats [34]): 20%
Cc1c(-c2cc(C(=O)NC(C)C)c(Cl)cc2F)nn(C)c1C(F)(F)F [Compound 22] | 40% | 100% | 98% | 85% | 100% | 100% | 40% | 97% | 5% | 25% | 25% | 100% | 95% | 5% | 6% | 90% | 85% | 90% | 45% | 75% | inhibition at 280.212 g/ha (Blackgrass [21]): 5%; inhibition at 280.212 g/ha (Green Foxtail [22]): 20%; inhibition at 280.212 g/ha (Common Chickweed [23]): 40%; inhibition at 280.212 g/ha (Downy Brome [24]): 15%; inhibition at 280.212 g/ha (Seedling Johnsongrass [25]): 60%; inhibition at 280.212 g/ha (Morning Glory [26]): 40%; inhibition at 280.212 g/ha (Soybean [27]): 50%; inhibition at 280.212 g/ha (Cocklebur [28]): 65%; inhibition at 280.212 g/ha (Birdseye Speedwell [29]): 40%; inhibition at 280.212 g/ha (Barnyardgrass [30]): 30%; inhibition at 280.212 g/ha (Corn [31]): 5%; inhibition at 280.212 g/ha (Wheat [32]): 0%; inhibition at 280.212 g/ha (Rape [33]): 10%; inhibition at 280.212 g/ha (Wild Oats [34]): 10%
Cc1c(-c2cc(C(=O)OCC(=O)OC(C)C)c(Cl)cc2F)nn(C)c1C(F)(F)F [Compound 23] | 65% | 45% | 65% | 15% | 85% | 100% | 15% | 30% | 25% | 5% | 10% | 100% | 40% | 0% | 0% | 75% | 10% | 98% | 50% | 20% | inhibition at 280.212 g/ha (Blackgrass [21]): 15%; inhibition at 280.212 g/ha (Green Foxtail [22]): 15%; inhibition at 280.212 g/ha (Common Chickweed [23]): 75%; inhibition at 280.212 g/ha (Downy Brome [24]): 25%; inhibition at 280.212 g/ha (Seedling Johnsongrass [25]): 65%; inhibition at 280.212 g/ha (Morning Glory [26]): 65%; inhibition at 280.212 g/ha (Soybean [27]): 30%; inhibition at 280.212 g/ha (Cocklebur [28]): 90%; inhibition at 280.212 g/ha (Birdseye Speedwell [29]): 75%; inhibition at 280.212 g/ha (Barnyardgrass [30]): 60%; inhibition at 280.212 g/ha (Corn [31]): 7%; inhibition at 280.212 g/ha (Wheat [32]): 11%; inhibition at 280.212 g/ha (Rape [33]): 10%; inhibition at 280.212 g/ha (Wild Oats [34]): 20%

From US5672715A, “Herbicidal substituted 3-aryl-pyrazoles” (Monsanto Company, priority 1995, dated 1997)
